How the values were obtained:
[1] = system: C-terminal domain (residues, 293–393); conditions: monomeric fragment versus tetrameric form; ref [50]; cited from earlier work
Source text: (§1) With a helix–loop–helix pattern, these proteins are site-specific and form homo and heterodimers. These proteins interact with copper, zinc, and calcium ions, and calcium-binding facilitates a variety of extracellular and intracellular governing consequences of these proteins. […] Further, it was also found to connect with the p53 tetrameriza ...

[2] = system: MDM2 N- terminal domain (2–125); conditions: ref [52]; cited from earlier work
Source text: as §1

[3] = system: p53 peptide (residues, 367–393); conditions: ref [49]; cited from earlier work
Source text: as §1

[4] = system: p53 tetramerization domain (residues, 325–355); conditions: ref [49]; cited from earlier work
Source text: as §1

[5] = system: p53 transactivation domain (residues, 1–57); conditions: fluorescence anisotropy; ref [50]; cited from earlier work
Source text: as §1

[6] = system: phosphorylated p53 N-terminus; conditions: single-site phosphorylation, fluorescence anisotropy; ref [51]; cited from earlier work
Source text: as §1

[7] = HIV-TAT alone; ref [79]; cited from earlier work
Source text: [79] […] The (LLKK)3 imparts an amphiphilic α-helical conformation to the peptide that disrupts the cellular membranes. […] [81] Altogether it can be inferred that the TAT sequence has a very minimal effect to the confirmation of the conjugated partner under consideratio ...

[8] = system: various cell lines including MCF-7; set-up: method as in PMID 19914216; conditions: ref [85], cited from earlier work
HeLa cells = conditions: N-terminal fluorescein tagged, even after five hours; ref [86]; cited from earlier work
Source text: [86] […] [85] […] [ ...

[9] = ref [77]; cited from earlier work
Source text: We selected residues from 76 to 92 (17 residues) for our peptide construction.

[10] = Stability of peptides in cells (inferred from WST-1 assay); conditions: deduced from WST-1 results after 48 hours of incubation
MDM2-p53 complex = test: HSQC-NMR competitive binding experiment; set-up: species or system human; conditions: unlabeled p53 added to 15N-labeled MDM2, 1:1, pH 7.2
Experimental: HSQC- NMR competitive binding experiment
All the experiments were carried out in the NMR buffer containing 20 mM Tris-HCl, 15 mM NaCl, 20 mM CaCl2, 20 mM DTT, 0.1% NaN3, and 10% D2O; pH 7.2.

MDM2 (17–125) = conditions: p53 (1–73), besides helix region (18–26); ref [70]; cited from earlier work
[11] = target: T1, p53-TAD (residues 1-73), N-terminal domain of p53 (UniProt P04637 1-73); test: other fluorescence titration; tryptophan fluorescence of p53 (1-73), excitation 295 nm; Peptide 1 0 to 12.0 uM added to 2 uM p53; 20 mM Tris-HCl, 15 mM NaCl, 20 mM CaCl2, 20 mM DTT, 0.1% NaN3, pH 7.2; conditions: both partners purified
T1 construct: cleaved protein of 8.6 kDa; plasmid a gift of G. Daughdrill; Used unlabelled or 15N-labelled; also called p53 (1-73); p53 N-terminal domain; source: bacterial cells in M9 media, purified (Ni-NTA, thrombin digestion, Superdex 75)
T1 sequence (P04637 1-73): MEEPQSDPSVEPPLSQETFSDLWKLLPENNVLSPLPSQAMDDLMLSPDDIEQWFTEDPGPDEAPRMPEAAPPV

Molecule: S100A1: human S100A1 protein produced in BL21 (DE3) E. coli [Peptide S100A1]
- binding to p53 C-terminal domain (293–393) [1]: could bind to the monomeric fragment of the C-terminal domain (residues, 293–393) but unable to form a complex with the tetrameric form
- association with MDM2 N-terminal domain (2–125) [2]: found to associate with the MDM2 N- terminal domain (2–125) and does not lead to the formation of a ternary complex with MDM2 and p53
- association with p53 peptide (367–393) [3]: found to associate with the p53 peptide (residues, 367–393)
- interaction with p53 TET domain (325–355) [4]: only interacted with the TET domain when its oligomerization state was lowered (monomers or dimers)
- binding to p53 transactivation domain (1–57) [5]: binding of S100A1 to the p53 transactivation domain (residues, 1–57)
- affinity of phosphorylated p53 N-terminus for S100A1 [6]: increased affinity for S100A1

Molecule: YGRKKRRQRRR [TAT peptide]
- conformation by CD spectrum [7]: unstructured form
- cytotoxicity of TAT peptide, above 5 μM ([8]; above 5 μM): 11–22%
- cytotoxicity of TAT peptide, up to 5 μM ([8]; up to 5 μM): non-toxic
- stability of TAT peptide (cytoplasmic fluorescence) (HeLa cells): quite stable
- delivery of heterologous proteins [9]: cytoplasmic delivery of heterologous proteins which was independent of the cell type

Molecule: CC(C)C[C@H](NC(=O)[C@H](C)NC(=O)[C@H](C)NC(=O)[C@@H](NC(=O)[C@H](CC(C)C)NC(=O)[C@@H](NC(=O)[C@@H](NC(=O)[C@H](CCCNC(=N)N)NC(=O)[C@H](CCCNC(=N)N)NC(=O)[C@H](CCCNC(=N)N)NC(=O)[C@H](CCC(N)=O)NC(=O)[C@H](CCCNC(=N)N)NC(=O)[C@H](CCCNC(=N)N)NC(=O)[C@H](CCCCN)NC(=O)[C@H](CCCCN)NC(=O)[C@H](CCCNC(=N)N)NC(=O)CNC(=O)[C@@H](N)Cc1ccc(O)cc1)C(C)C)C(C)C)C(C)C)C(=O)N[C@H](C(=O)N[C@H](C(=O)N[C@@H](C)C(=O)N[C@@H](CS)C(=O)N[C@@H](CC(N)=O)C(=O)N[C@@H](CC(N)=O)C(=O)N[C@@H](Cc1ccccc1)C(=O)N[C@@H](Cc1ccccc1)C(=O)N[C@@H](Cc1c[nH]c2ccccc12)C(=O)N[C@@H](CCC(=O)O)C(=O)O)C(C)C)[C@@H](C)O [Peptide 1]
- stability in cells [10]: quite stable

Molecule: p53 (1–73): p53-TAD (residues, 1–73)
- effect on 15N labeled MDM2 HSQC peaks (MDM2-p53 complex): several ^15N labeled MDM2 peaks were shifted and/or disappeared
- p53 regions able to bind to MDM2 (MDM2 (17–125)): nascent turns 1 (40–45) and 2 (49–54) are furthermore able to bind to MDM2

B1: Peptide 1 (HIV-TAT + S100A1 derived peptide) (peptide)
peptide: YGRKKRRQRRRVVLVAALTVACNNFFWE
notes: HIV-TAT cell-penetrating segment derived from the TAT protein of human immunodeficiency virus; S100A1, human, C-terminal residues 76 to 92 (17 residues); 28 residues; the TAT segment stands N-terminal of the S100A1 stretch; also called fusion peptide; source: synthetic peptide, bought: Kelowna International Scientific Inc., >= 95% purity
- Kd [11]: ~590 nM
